Reference: patent publication US20240026262A1, “METHODS AND DEVICES FOR EX-UTERO MOUSE EMBRYONIC DEVELOPMENT” (Yeda Research and Development Co. Ltd., priority 2021, published 2024)
“Also recorded” adds a separate entry of the source.

Assays:
[1] = test system: mouse embryos; experiment: Ex utero culture of mouse embryos from E6.5 in supplemented EUCM, proper embryo development per stage
Description: E5.5 and E6.5 embryos ex utero culture—Cultures starting with pre-gastrulation (E5.5) and early gastrulation (E6.5) embryos were effected in static culture conditions until the early somite stage. Embryos were dissected out of the uterus and individual embryos were transferred into each well of a 8-wells glass bottom/ibiTreat μ-plates (iBidi; 80827/80826) filled with 250 μl of EUCM. To optimize culturing conditions, different media, oxygen concentrations (5% or 21%), extracellular matrices (Matrigel), supplements (N2/B27), and gas pressures (hyperbaric 2.5 or 5 psi) were tested. Media was pre-heated for an hour in an incubator with 5% CO2 at 37° C. Pre-primitive streak stage embryos (distal and anterior visceral endoderm stage) were chosen for culture in the case of E5.5, and early-primitive streak stage embryos were selected for cultures beginning at E6.5. Only embryos with no evident damage and without Reichert's membrane were cultured. Half a volume of media was replaced every 24 hours. Embryos were transferred into the rotating culture at the 4-7 somite stage (three days for cultures started at E5.5 and two days for cultures started at E6.5) or at the late gastrulation stage using the same conditions described previously for E8.5, with the difference that embryos were maintained in a constant atmosphere of 21% oxygen and 5% CO2. Transfer of the embryos at earlier or later stages results in failure of further development. Dynamic oxygen conditions yielded slightly less efficiency for expanding E6.5-E11 than using constant 21% oxygen (FIGS. 10A-B). This difference could result from oxygen diffusion in static conditions being be less efficient than in roller conditions, and that might be why higher oxygen is needed to be delivered in protocols that include static conditions. To allow further culture of the embryos until the stage (E13.5), oxygen was increased to 95% from E10.5 onwards and at E11.5 the embryos were dissected out of the yolk sac and amnion carefully avoiding rupture of any major yolk sac blood vessels, but keeping the yolk sac and umbilical cord attached to the embryo. Morphological evaluation of mouse embryo development—Assessment of appropriate embryo development was performed based on previously established morphological features [Van Maele-Fabry, G., et al. Toxicol. Vitr. 4, 149-156 (1990); Van Maele-Fabry, G., et al. Int. J. Dev. Biol. 36, 161-167 (1992)]. Only embryos presenting all of the following features were considered as properly developed. Proper development at the morphological level from E5.5/E6.5 to E8.5 was assessed as follows: At E6.5, the embryos are constituted by three cell lineages: the cup-shaped pluripotent epiblast (Epi) and two extra-embryonic lineages, the extraembryonic ectoderm (ExE) and the visceral endoderm (VE). The cavities in the embryonic and extraembryonic compartments are unified to form the pro-amniotic cavity, radial symmetry is broken in the epiblast to initiate specification of the primitive streak. After 1 or 2 days of culture ex utero (depending on the time of culture initiation, E5.5 or E6.5), the embryos reach the neural plate stage equivalent to E7.5, with no allantoic bud or early bud. The amniotic folds fuse to form the amnion, and the chorion develops from the ExE and the extraembryonic mesoderm. These events generate three cavities in the embryo: amniotic, exocoelomic and ectoplacental cavities. A small allantois bud is present in some of the embryos, at the base of the primitive streak, and the anterior ectoderm begins to form the future neural groove. On the following day, cultured embryos present between 4 to 8 pairs of somites with the embryo curved dorsally, the yolk sac and yolk sac blood circulation has been established, the allantois started to fuse with the chorion, head folds are well-formed as well as the invaginating foregut and beating heart. […]

[2] = test system: neural tube closure in mouse embryos; experiment: Teratogenic experiments in mouse embryos cultured ex utero since E7.5; details: 1 mM in culture media from E8.5 to E9.5, n=6
Description: E7.5 embryo dissection and ex utero culture—Mouse embryos were obtained from non-hormone primed pregnant mice sacrificed by cervical dislocation at E7.5. Subsequently, embryos were dissected out from the uterus in dissection medium pre-equilibrated at 37° C. for 1 hour, consisting of DMEM (GIBCO 11880; includes already 1 mg/mL D-glucose and pyruvate, without phenol red and without L-glutamine) supplemented with 10% Fetal Bovine Serum (Biological Industries; 040131A), sterilized by using a 0.22 μm filter (JetBiofil; FCA-206-250). The embryos were carefully dissected from the decidua and parietal yolk sac leaving the intact ectoplacental cone attached to the egg cylinder. Briefly, the decidua was isolated from the uterine tissue and the tip of the pear-shaped decidua was cut. The decidua was then opened into halves by introducing the forceps adjacent to the embryo in parallel to its long axis and subsequently opening the forceps. Afterwards the embryo was grasped from the decidua and the parietal yolk sac was peeled off the embryo using two forceps. Embryo dissection was performed on a microscope equipped with a Tokai Hit thermo plate at 37° C., within a maximum of 30 minutes to avoid affecting the embryo developmental potential. […] Developmental stage of the embryos was determined according to Downs & Davies^5. […]

SMILES	effect on forebrain growth and forebrain defects ([1]; 1 mM sodium pyruvate added to EUCM)	proper embryo development at E7.5 ([1]; EUCM with additional 4 mg/ml glucose and 1 mM sodium pyruvate since E6.5, stage E7.5)	proper embryo development at E8.5 (embryos/total) ([1]; EUCM with additional 4 mg/ml glucose and 1 mM sodium pyruvate since E6.5, stage E8.5)	proper embryo development at E9.5 ([1]; EUCM with additional 4 mg/ml glucose and 1 mM sodium pyruvate since E6.5, stage E9.5)	proper embryo development at E10.5 ([1]; EUCM with additional 4 mg/ml glucose and 1 mM sodium pyruvate since E6.5, stage E10.5)	proper embryo development at E11.5 ([1]; EUCM with additional 4 mg/ml glucose and 1 mM sodium pyruvate since E6.5, stage E11.5)	proper embryo development at E12.5 ([1]; EUCM with additional 4 mg/ml glucose and 1 mM sodium pyruvate since E6.5, stage E12.5)	effect on culture efficiency ([1]; additional 4 mg/ml glucose and 1 mM sodium pyruvate in EUCM since E6.5)	teratogenic effect on neural tube closure [2]
CC(=O)C(=O)[O-].[Na+] [sodium pyruvate]	promotes forebrain growth and eliminates forebrain defects	8/8 - 100%	7/7 (1 attached)	6/7 - 85.7%	6/7 - 85.7%	4/7 - 57%	4/7 - 57%	helps to improve culture efficiency	
CCCC(CCC)C(=O)O [valproic acid]									neural tube closure defects; also recorded: teratogenic effects of valproic acid on neural tube closure could be recapitulated
